Results taken from patent US11311522B1 (Cavion, Inc., priority 2018, dated 2022).

Test: PN003: safety and tolerability
Format: in vivo
Details: for At least 1 adverse event / Disorientation / Dry mouth / Gastrointestinal Disorders / Hallucinations visual / Headache / Insomnia / Nausea / Nervous System Disorders / Psychiatric Disorders / Somnolence / Vivid dreams: Study PN003/Part I and Part II
Source text: Additional adverse events, including mood swings, feeling frightened, laughing intermittently, difficulty moving hands, feeling weak, enhanced taste, loss of fine sensation in fingertips, some loss of sensation at skin level (all over body), and out of body feeling, were reported as the day progressed. All adverse events were mild or moderate in severity. Most events began minutes to hours after dosing, and all had resolved by 3 days after dosing. The adverse events that the subject experienced were described as “mood swings” and led to discontinuation of dosing. […] In addition, they reported feeling angry towards another subject, feeling dizzy/drunk, intense daydreams, shaking/trembling, and sweating. All adverse events were mild in severity, and all were considered possibly related to the study drug. The last dose of CX-8998 was not administered. All adverse events resolved after discontinuation of the study drug. […] The subject experienced nervous system-related events of gradually increasing severity, including lightheadedness, euphoria, tiredness, headache, hard to follow thoughts, vulnerable thoughts and emotions, feeling flat, and weak in the muscles. All adverse events were mild or moderate in severity, and all were considered possibly related to the study drug. The last dose of CX-8998 was not administered. All adverse events resolved after discontinuation of the study drug. […] Oxygen saturation and serum glucose levels were within normal limits, but the subject's blood pressure was low at the time of the event (76/43 mmHg, with a pulse rate of 59 bpm). […] The event was judged by the investigator as moderate in severity and as probably related to the study drug. The subject was discontinued from the study because of ongoing nausea and feelings of weakness and lethargy. […] The subject was not on telemetry at the time. The investigator considered the event to be a vasovagal reaction (moderate in severity) and assessed the event as unrelated to the study drug. The subject continued in the study and completed the planned 7 days of treatment. […] A washout period of at least 2 weeks separated the treatment periods. […] The PSG recordings were initiated at each subject's habitual bedtime and continued for 8 hours. In addition to PSG recordings, subjects were evaluated on the next day with subjective measures of sleep quality (Leeds Sleep Evaluation Questionnaire) and sleepiness (Karolinska Sleepiness Scale) and with cognitive and motor tasks to assess next-morning residual effects. An interim analysis of the primary endpoint (slow wave activity in the first one-third of sleep) was performed after 24 subjects had completed Part I of the study (Section 5.3.3.1.2). The study was adaptively designed to allow a re-estimation of the sample size after the interim analysis. Based on the results of the interim analysis, the study could be stopped if the efficacy criterion (increase in slow wave activity, p<0.05) or futility criterion (p>0.25) was achieved. If neither criterion was met, a re-estimation of the sample size was specified, with the ability to enroll up to 24 additional subjects. […] As in Part I of the study, PSG recordings were initiated at each subject's habitual bedtime and continued for 8 hours, and subjects were evaluated on the next day with subjective measures of sleep quality (Leeds Sleep Evaluation Questionnaire) and sleepiness (Karolinska Sleepiness Scale) and with cognitive and motor tasks to assess next-morning residual effects.
All reported adverse experiences were temporary and generally of mild intensity.
The visual disturbances tended to cease with eye opening and to recur with eye closure and were generally not disturbing to the subjects. […] No serious adverse events were reported, and none of the subjects discontinued treatment because of an adverse event. […] 5.3.3.1.3.2 Other Safety Assessments No clinically significant trends in safety laboratory parameters or vital signs were observed. […]

[1] = single dose 4 mg, N = 12 exposures
[2] = single dose 8 mg, N = 9 exposures
[3] = single dose 12 mg, N = 54 exposures

CC(C)c1ccc(CC(=O)N[C@H](C)c2ccc(OCC(F)(F)F)cn2)cc1 [CX-8998]
Exposures with increase from baseline of ≥30 and ≤60 msec in QTc (8 mg): 11.1%
Exposures with increase from baseline of ≥30 and ≤60 msec in QTc (12 mg): 5.6%
At least 1 adverse event (Any Dose, N = 75 exposures): 33 (44.0) n (%)
Disorientation (Any Dose, N = 75 exposures): 3 (4.0) n (%)
Dry mouth (Any Dose, N = 75 exposures): 2 (2.7) n (%)
Gastrointestinal Disorders (Any Dose, N = 75 exposures): 7 (9.3) n (%)
Hallucinations visual (Any Dose, N = 75 exposures): 4 (5.3) n (%)
Headache (Any Dose, N = 75 exposures): 9 (12.0) n (%)
Insomnia (Any Dose, N = 75 exposures): 3 (4.0) n (%)
Nausea (Any Dose, N = 75 exposures): 2 (2.7) n (%)
Nervous System Disorders (Any Dose, N = 75 exposures): 15 (20.0) n (%)
Psychiatric Disorders (Any Dose, N = 75 exposures): 17 (22.7) n (%)
Somnolence (Any Dose, N = 75 exposures): 6 (8.0) n (%)
Vivid dreams (Any Dose, N = 75 exposures): 4 (5.3) n (%)
At least 1 adverse event [1]: 4 (33.3) n (%)
Disorientation [1]: 0 n (%)
Dry mouth [1]: 0 n (%)
Gastrointestinal Disorders [1]: 1 (8.3) n (%)
Hallucinations visual [1]: 2 (16.7) n (%)
Headache [1]: 1 (8.3) n (%)
Insomnia [1]: 1 (8.3) n (%)
Nausea [1]: 1(8.3) n (%)
Nervous System Disorders [1]: 2 (16.7) n (%)
Psychiatric Disorders [1]: 3 (25.0) n (%)
Somnolence [1]: 1 (8.3) n (%)
Vivid dreams [1]: 0 n (%)
At least 1 adverse event [2]: 2 (22.2) n (%)
Disorientation [2]: 0 n (%)
Dry mouth [2]: 0 n (%)
Gastrointestinal Disorders [2]: 1 (11.1) n (%)
Hallucinations visual [2]: 0 n (%)
Headache [2]: 0 n (%)
Insomnia [2]: 0 n (%)
Nausea [2]: 0 n (%)
Nervous System Disorders [2]: 1 (11.1) n (%)
Psychiatric Disorders [2]: 0 n (%)
Somnolence [2]: 1 (11.1) n (%)
Vivid dreams [2]: 0 n (%)
At least 1 adverse event [3]: 27 (50.0) n (%)
Disorientation [3]: 3 (5.6) n (%)
Dry mouth [3]: 2 (3.7) n (%)
Gastrointestinal Disorders [3]: 5 (9.3) n (%)
Hallucinations visual [3]: 2 (3.7) n (%)
Headache [3]: 8 (14.8) n (%)
Insomnia [3]: 2 (3.7) n (%)
Nausea [3]: 1 (1.9) n (%)
Nervous System Disorders [3]: 12 (22.2) n (%)
Psychiatric Disorders [3]: 14 (25.9) n (%)
Somnolence [3]: 4 (7.4) n (%)
Vivid dreams [3]: 4 (7.4) n (%)
